≈ marks a conversion by molar mass, not a printed value.
Key:
[1] = system: P388; assay: Cytotoxicity against mouse P388 cells by MTT assay; format: functional, cell-based
[2] = Cytotoxicity against human CNE2 cells by MTT assay; format: functional, cell-based; settings: CNE-2

COC(=O)[C@@]12CC(=O)[C@@H](C(C)C)CC(=O)[C@@H](C)CCC[C@@H](C)CC(=O)[C@@H]1CC(C)=C1[C@H]2/C=C(\C)CC[C@H]2O[C@@H](CC=C2C)[C@](C)(O)C[C@@H]1O [METHYL TORTUOATE A]
IC50 [1]: 3.5 µg/mL (≈ 5.12 µM)
IC50 [2]: 22.7 µg/mL (≈ 33.2 µM)

COC(=O)[C@@]12CC(=O)[C@@H](C(C)C)CC(=O)[C@@H](C)CCC[C@@H](C)CC(=O)[C@@H]1CC(C)=C1[C@@H]3C[C@@](C)(O)[C@H](CC[C@@H](C)C(=O)CC/C(C)=C/[C@H]12)O3 [METHYL TORTUOATE B]
IC50 [1]: 5 µg/mL (≈ 7.32 µM)
IC50 [2]: 24.7 µg/mL (≈ 36.2 µM)
